Test systems include M14; OVCAR-5; Malme-3M; EKVX; BT-549; RXF 393; NCI-H226; SF-539; NCI-H23; MDA-MB-231; COLO 205; PC-3; SNB-75; MDA-N; U-251; HL-60.
Holding throughout (assay): NCI anticancer screen, dose series, 48 h

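Growth conditions: 96-well plates. Treatment: test compound, 48 hours, 5 concentrations. Analysis: linear interpolation between bracketing concentrations; unreached endpoints set to highest concentration. Abbreviation: GI50, concentration required for 50% inhibition of growth.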 Active and inactive are the calls of the source. No stated cut-off is given here; in the data, active = GI50 up to about 1.1 µM and inactive = higher.

For `CN(C)S(=O)(=O)n1ccnc1`, the GI50 in the test with M14, with OVCAR-5, with Malme-3M, in the test with EKVX, in the test with BT-549 and in the test on RXF 393 was > 100 µM (inactive) in each case. The GI50 in the test with NCI-H226, in the test with SF-539, in the test with NCI-H23, with MDA-MB-231, with COLO 205 and in the test with PC-3 was > 100 µM (inactive) throughout. The GI50 in the test on SNB-75, in the test with MDA-N and in the test with U-251 was > 100 µM (inactive) in each case.
`O=C(O)c1cc2ccccc2c(/N=N/c2ccc(S(=O)(=O)O)cc2)c1O`: the GI50 in the test on M14, in the test with OVCAR-5, with Malme-3M, in the test with HL-60, in the test on EKVX and in the test with BT-549 was > 100 µM (inactive) each time. Besides, the GI50 in the test with RXF 393, in the test on NCI-H226, in the test on SF-539, with MDA-MB-231, in the test on COLO 205 and in the test on PC-3 was > 100 µM (inactive) each time. The GI50 in the test on SNB-75, with MDA-N and in the test on U-251 was > 100 µM (inactive) throughout.
As to `CCOC(=O)CCN1C(=O)c2c(NC(=O)C(=O)O)cccc2S1(=O)=O`, the GI50 in the test on M14, in the test on OVCAR-5, with Malme-3M, in the test with HL-60, in the test with EKVX and in the test on BT-549 was > 100 µM (inactive) throughout. Besides, the GI50 in the test on RXF 393, in the test on NCI-H226, with NCI-H23, in the test with MDA-MB-231, in the test on COLO 205 and in the test on PC-3 was > 100 µM (inactive) throughout. Moreover, the GI50 in the test with MDA-N and with U-251 was > 100 µM (inactive) each time.
For `O=[N+]([O-])/C(C(Cl)=C(Cl)Cl)=C(/Br)SCc1ccccc1`, the GI50 in the test with M14 was 2.4 µM (inactive); in the test on OVCAR-5 it was 5.71 µM (inactive); with Malme-3M it was 2.88 µM (inactive); in the test with HL-60, 0.222 µM (active); with EKVX it was 5.46 µM (inactive); in the test with BT-549 it was 2 µM (inactive). For the same molecule, the GI50 in the test on RXF 393 is 1.79 µM (inactive); in the test with NCI-H226, 6.07 µM (inactive); in the test with SF-539, 7.4 µM (inactive); in the test on NCI-H23, 3.22 µM (inactive); in the test on MDA-MB-231, 2.72 µM (inactive); in the test with COLO 205, 1.6 µM (inactive). The GI50 with PC-3 was 2.79 µM (inactive); in the test with SNB-75 it was 2.56 µM (inactive); in the test with MDA-N, 1.87 µM (inactive); in the test with U-251 it was 4.48 µM (inactive).
Take `O=[N+]([O-])C(=C(Nc1ccccc1)Nc1ccccc1)C(Cl)=C(Cl)Cl`: the GI50 in the test with M14 was 18.2 µM (inactive); in the test with OVCAR-5, 23.1 µM (inactive); in the test on Malme-3M it was 19.6 µM (inactive); in the test with EKVX it was 15.7 µM (inactive); in the test on BT-549, 13.9 µM (inactive); with RXF 393 it was 15.8 µM (inactive). Moreover, the GI50 in the test with NCI-H226 is 19 µM (inactive); in the test on SF-539, 20.2 µM (inactive); in the test with NCI-H23 it was 13.6 µM (inactive); in the test on MDA-MB-231, 17.3 µM (inactive); in the test with COLO 205 it was 17.5 µM (inactive); with PC-3, 15.2 µM (inactive). For the same molecule, the GI50 was 19.1 µM (inactive) with SNB-75, 12.6 µM (inactive) in the test with MDA-N and 20.2 µM (inactive) in the test with U-251.
For the molecule `O=c1oc2ccc3ccccc3c2cc1-c1cn2c(n1)sc1ccccc12`, the GI50 in the test on M14 is > 100 µM (inactive); in the test with OVCAR-5, > 100 µM (inactive); in the test on Malme-3M it was > 100 µM (inactive); in the test with HL-60, > 100 µM (inactive); in the test with EKVX it was 90.8 µM (inactive); in the test with BT-549, > 100 µM (inactive). Besides, the GI50 in the test with RXF 393, in the test with NCI-H226, in the test on NCI-H23, with MDA-MB-231, in the test with COLO 205 and with PC-3 was > 100 µM (inactive) in each case. Besides, the GI50 in the test with SNB-75, in the test on MDA-N and in the test with U-251 was > 100 µM (inactive) in each case.
With `Nn1c(CCCCCCCCc2nnc(COc3ccccc3)n2N)nnc1COc1ccccc1`, the GI50 in the test with M14, in the test on OVCAR-5, in the test with Malme-3M, in the test with HL-60, in the test on EKVX and with BT-549 was > 100 µM (inactive) each time. Also, the GI50 with RXF 393, with NCI-H226, in the test on NCI-H23, in the test on MDA-MB-231, in the test on COLO 205 and in the test on PC-3 was > 100 µM (inactive) throughout. The GI50 was 88.1 µM (inactive) in the test on SNB-75, > 100 µM (inactive) with MDA-N and > 100 µM (inactive) in the test with U-251.
In the case of `CSc1ccc(-c2cc(-c3nc4ccccc4[nH]3)nc(N)c2C#N)cc1`, the GI50 in the test on M14 was 16.8 µM (inactive); with OVCAR-5, 26.6 µM (inactive); with Malme-3M, 19.4 µM (inactive); in the test on HL-60, 20 µM (inactive); in the test with EKVX it was 20.1 µM (inactive); with BT-549, 20.6 µM (inactive). Also, the GI50 was 2.58 µM (inactive) with RXF 393; 21.3 µM (inactive) in the test on NCI-H226; 23.6 µM (inactive) in the test with SF-539; 24.9 µM (inactive) in the test with NCI-H23; 17.1 µM (inactive) in the test on MDA-MB-231; 15.9 µM (inactive) with COLO 205. For the same molecule, the GI50 is 20.7 µM (inactive) in the test with PC-3, 23.1 µM (inactive) in the test with SNB-75 and 20.7 µM (inactive) in the test with MDA-N.
For the molecule `Cc1ccc(/N=N/C(=N\c2ccc(F)cc2)c2ccc(N(CCC#N)CCC#N)cc2)cc1`, the GI50 in the test on M14 was > 100 µM (inactive); in the test with OVCAR-5 it was > 100 µM (inactive); with EKVX, 99.5 µM (inactive); in the test on BT-549, 67.8 µM (inactive); in the test with RXF 393 it was > 100 µM (inactive); in the test with NCI-H226 it was > 100 µM (inactive). Further, the GI50 in the test on SF-539 was > 100 µM (inactive); in the test on NCI-H23 it was > 100 µM (inactive); in the test with MDA-MB-231, > 100 µM (inactive); with COLO 205, 64.4 µM (inactive); in the test on PC-3, 51.6 µM (inactive); with SNB-75 it was > 100 µM (inactive). Moreover, the GI50 was > 100 µM (inactive) with MDA-N and 36.2 µM (inactive) in the test on U-251.
Take `C/C(Nc1ccc(Cl)cc1)=C1/CCOC1=O`: the GI50 with M14 is 2.62 µM (inactive); in the test on OVCAR-5 it was > 20.5 µM (inactive); with Malme-3M, > 100 µM (inactive); in the test with HL-60, 1.15 µM (inactive); with EKVX, 34.3 µM (inactive); in the test with BT-549, 52.7 µM (inactive). The GI50 in the test with RXF 393 is > 32.1 µM (inactive); in the test with NCI-H226, > 100 µM (inactive); in the test on SF-539 it was > 25.4 µM (inactive); in the test with NCI-H23, > 100 µM (inactive); with MDA-MB-231, > 100 µM (inactive); in the test on COLO 205, 1.44 µM (inactive). The GI50 in the test with PC-3 was > 43.7 µM (inactive); in the test with SNB-75, > 67.8 µM (inactive); with MDA-N, 92.5 µM (inactive); in the test with U-251 it was > 100 µM (inactive).
Consider `CN(C)Cc1cc(/N=N/c2cccc(Cl)c2)ccc1O`, for which the GI50 in the test with M14 is 9.66 µM (inactive); with OVCAR-5 it was 14.9 µM (inactive); with Malme-3M, 16.7 µM (inactive); with HL-60, 17.3 µM (inactive); with BT-549, 15.9 µM (inactive); with RXF 393 it was 1.99 µM (inactive). For the same molecule, the GI50 with NCI-H226 was 17.4 µM (inactive); with SF-539, 16 µM (inactive); with NCI-H23, 19.9 µM (inactive); with MDA-MB-231, 9.1 µM (inactive); in the test on COLO 205, 19.5 µM (inactive); in the test on PC-3, 16.6 µM (inactive). In addition, the GI50 in the test on SNB-75 is 16.1 µM (inactive); in the test on MDA-N it was 10.2 µM (inactive); in the test with U-251, 16.9 µM (inactive).
For the molecule `O=C1NC(=O)[C@H]2C3C=CC([C@@H]12)[C@@H]1C(=O)NC(=O)[C@H]31`, the GI50 in the test with M14, with OVCAR-5, with Malme-3M, with HL-60, in the test on EKVX and with BT-549 was > 100 µM (inactive) each time. Further, the GI50 in the test with RXF 393, with NCI-H226, in the test on SF-539, in the test with NCI-H23, in the test on MDA-MB-231 and in the test with COLO 205 was > 100 µM (inactive) throughout. Further, the GI50 with PC-3, in the test with MDA-N and in the test on U-251 was > 100 µM (inactive) throughout.
On to `c1ccc([P+](c2ccccc2)(c2ccccc2)c2ccc([P+](c3ccccc3)(c3ccccc3)c3ccccc3)c3ccccc23)cc1`, for which the GI50 was > 100 µM (inactive) in the test on M14; > 100 µM (inactive) with OVCAR-5; > 100 µM (inactive) in the test with Malme-3M; 41.6 µM (inactive) with HL-60; 51.2 µM (inactive) in the test with BT-549; > 100 µM (inactive) with RXF 393. Moreover, the GI50 with NCI-H226 was > 100 µM (inactive); with SF-539, 63.7 µM (inactive); with NCI-H23, 57.4 µM (inactive); in the test with MDA-MB-231, > 100 µM (inactive); in the test with COLO 205, 52.7 µM (inactive); in the test with PC-3 it was 70.6 µM (inactive). In addition, the values for the GI50 with SNB-75, in the test with MDA-N and in the test with U-251 were 70.1 µM (inactive), 64.4 µM (inactive) and 35.7 µM (inactive), respectively.
